Assay results taken from US6875743B1, “Cell adhesion inhibitors” (Biogen, Inc., priority 1996, dated 2005).
Numbered stars: 1 amine (or outer) side, 2 acyl side, 3 side chain; on linkers, the order of the positions; unused ones are H or OH. Square brackets hold non-standard residues; d marks the D form. Peptide text beside a SMILES is read from it. * marks the point of attachment. X2 = Cc1ccccc1NC(=O)Nc1ccc(CN*)cc1; X5 = COc1cc(CC(=O)[*:2])ccc1N[*:1]; Hydrocinnamoyl = O=C(CCc1ccccc1)*; X1 = O=C(Cc1ccc(N[*:1])cc1)[*:2]; NH(2-Me-phenyl) = Cc1ccccc1N*; Tic = O=C(O)[CH]1Cc2ccccc2CN1; Chg = N[CH](C(=O)O)C1CCCCC1; NMeL = CN[CH](CC(C)C)C(=O)O; PhAc = O=C(Cc1ccccc1)*; Boc = CC(C)(C)OC(=O)*; CO = O=C([*:1])[*:2]; Bz = O=C(c1ccccc1)*; NHPh = c1ccc(N*)cc1; Ahx = NCCCCCC(=O)O; X3 = Cc1cccc(N*)n1

Target: T1, VLA4 (Homo sapiens, UniProt P05556+P13612)
T1 construct: endogenous in cells; host or cells: Ramos cells
Experiment: Inhibition of VLA4-dependent adhesion to BSA-CS1
Assay type: cell-based
Conditions: binding of BCECF-labelled Ramos cells to BSA-CS1 coated wells, 2 mM MnCl2; read-out: IC50

T1 sequence (P13612 34-1032): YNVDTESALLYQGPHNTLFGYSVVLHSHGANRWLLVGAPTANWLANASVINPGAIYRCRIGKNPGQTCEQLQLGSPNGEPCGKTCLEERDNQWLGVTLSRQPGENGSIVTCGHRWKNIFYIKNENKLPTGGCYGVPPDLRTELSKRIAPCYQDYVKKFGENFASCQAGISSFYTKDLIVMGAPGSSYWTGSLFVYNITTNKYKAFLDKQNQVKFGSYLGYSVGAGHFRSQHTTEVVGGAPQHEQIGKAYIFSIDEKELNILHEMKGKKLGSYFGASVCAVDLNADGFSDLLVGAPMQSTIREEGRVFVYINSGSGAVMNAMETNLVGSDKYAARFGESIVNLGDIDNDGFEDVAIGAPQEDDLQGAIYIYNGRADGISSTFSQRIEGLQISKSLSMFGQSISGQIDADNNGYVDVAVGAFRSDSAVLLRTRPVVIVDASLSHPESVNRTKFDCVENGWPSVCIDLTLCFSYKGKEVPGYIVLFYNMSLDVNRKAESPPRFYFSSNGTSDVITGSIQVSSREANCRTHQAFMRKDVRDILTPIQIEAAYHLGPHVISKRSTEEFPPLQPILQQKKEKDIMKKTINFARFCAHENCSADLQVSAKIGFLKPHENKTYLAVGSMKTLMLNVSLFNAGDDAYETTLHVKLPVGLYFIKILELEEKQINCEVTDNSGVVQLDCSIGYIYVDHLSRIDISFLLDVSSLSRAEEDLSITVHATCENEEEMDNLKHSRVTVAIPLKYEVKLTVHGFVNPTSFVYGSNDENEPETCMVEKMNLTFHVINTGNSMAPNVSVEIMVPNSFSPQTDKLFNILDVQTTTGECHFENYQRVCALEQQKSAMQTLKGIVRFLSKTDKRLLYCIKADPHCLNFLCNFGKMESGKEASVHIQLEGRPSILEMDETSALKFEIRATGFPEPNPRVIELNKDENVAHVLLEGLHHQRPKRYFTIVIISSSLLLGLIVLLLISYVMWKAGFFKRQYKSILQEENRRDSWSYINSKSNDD
T1 sequence (P05556 21-798): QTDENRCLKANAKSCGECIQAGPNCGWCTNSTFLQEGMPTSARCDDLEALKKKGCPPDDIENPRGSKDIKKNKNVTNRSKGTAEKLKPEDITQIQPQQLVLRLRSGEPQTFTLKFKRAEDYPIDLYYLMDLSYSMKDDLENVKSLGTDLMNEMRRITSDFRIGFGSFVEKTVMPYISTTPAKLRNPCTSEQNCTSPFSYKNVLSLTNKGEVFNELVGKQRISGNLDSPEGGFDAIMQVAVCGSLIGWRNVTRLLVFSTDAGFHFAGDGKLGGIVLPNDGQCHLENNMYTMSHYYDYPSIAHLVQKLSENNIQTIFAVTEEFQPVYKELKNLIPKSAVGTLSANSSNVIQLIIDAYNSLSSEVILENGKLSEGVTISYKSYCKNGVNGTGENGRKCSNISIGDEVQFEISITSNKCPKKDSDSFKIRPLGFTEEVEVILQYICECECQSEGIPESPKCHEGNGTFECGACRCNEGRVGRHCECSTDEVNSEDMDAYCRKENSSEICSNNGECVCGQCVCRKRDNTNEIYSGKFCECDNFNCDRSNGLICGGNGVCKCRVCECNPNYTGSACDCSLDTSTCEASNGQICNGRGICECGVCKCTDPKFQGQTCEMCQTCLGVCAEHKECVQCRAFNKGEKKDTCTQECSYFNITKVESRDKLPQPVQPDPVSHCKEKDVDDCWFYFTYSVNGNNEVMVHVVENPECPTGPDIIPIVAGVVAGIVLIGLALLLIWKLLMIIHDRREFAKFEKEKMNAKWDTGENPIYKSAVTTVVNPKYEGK

SMILES	IC50 [nM]
Cc1c(C(=O)N[C@@H](CC(C)C)C(=O)N[C@@H](CC(=O)O)C(=O)N[C@H](C(=O)O)C(C)C)cnn1-c1ccccc1 [Compound 369]	> 10000
Cc1ccccc1NC(=O)Nc1ccc(CC(=O)N[C@@H](CC(C)C)C(=O)N[C@@H](CC(=O)O)C(=O)N[C@@H](CC(=O)O)C(N)=O)cc1 [Compound 230]	< 50
CC[C@H](C)[C@H](NC(=O)[C@@H](CC(=O)O)NC(=O)[C@H](N)C(C)C)C(=O)NCc1ccc(NC(=O)Nc2ccccc2C)cc1 [Compound 344]	> 10000
Cc1ccccc1NC(=O)Nc1ccc(CC(=O)N[C@H](C(=O)N[C@@H](CC(=O)O)C(=O)N[C@@H](CC(=O)O)C(N)=O)[C@@H](C)O)cc1 [Compound 252]	< 50
CC[C@H](C)[C@H](NC(=O)[C@H](CC(=O)O)NC(=O)[C@H](CC(C)C)NC(=O)Cc1ccc(NC(=O)Nc2ccccc2C)cc1)C(=O)O [Compound 345]	< 50
CC(C)C[C@@H](NC(=O)Cc1ccc(NC(=O)Nc2ccccc2)cc1)C(=O)N[C@H](CC(=O)O)C(=O)N[C@@H](C(=O)N1CCC[C@@H]1C(N)=O)C(C)C [Compound 212] ({NHPh-CO}-[X1][dL][dD][dV][dP]-NH2)	50 to 10000
Cc1ccccc1NC(=O)Nc1ccc(CC(=O)N[C@@H](CO)C(=O)N[C@@H](CC(=O)O)C(=O)N[C@@H](CC(C)C)C(N)=O)cc1 [Compound 276]	< 50
CSCC[C@H](NC(=O)Cc1ccc(NC(=O)Nc2ccccc2C)cc1)C(=O)N[C@@H](CC(=O)O)C(=O)N[C@H](CCC(=O)O)C(N)=O [Compound 227]	< 50
Cc1ccccc1NC(=O)Nc1ccc(CC(=O)N[C@H](C(=O)N[C@@H](CC(=O)O)C(=O)N[C@H](CC(C)C)C(N)=O)[C@@H](C)O)cc1 [Compound 255]	< 50
CC(C)C[C@H](NC(=O)c1ccc(C(C)C)cc1)C(=O)N[C@@H](CC(=O)O)C(=O)N[C@H](C(=O)O)C(C)C [Compound 405]	> 10000
CNC(=O)C(NC(=O)C(CC(=O)O)NC(=O)C(CC(C)C)N(C)C(=O)CCc1ccccc1)C(C)C (stereo not drawn) [Compound 184] (Hydrocinnamoyl-[NMeL]-Asp-Val-NHMe; configuration not given here)	> 10000
CC(C)C[C@H](NC(=O)Cc1cccs1)C(=O)N[C@@H](CC(=O)O)C(=O)N[C@H](C(=O)O)C(C)C [Compound 404]	> 10000
CC(C)CNC(=O)[C@@H](NC(=O)[C@H](CC(=O)O)NC(=O)[C@H](CC(C)C)NC(=O)Cc1ccc(NC(=O)Nc2ccccc2)cc1)C(C)C [Compound 205]	50 to 10000
Cc1ccccc1NC(=O)Nc1ccc(CC(=O)N2CCC[C@H]2C(=O)N[C@@H](CCC(=O)O)C(=O)N[C@H](CC(C)C)C(=O)O)cc1 [Compound 415]	50 to 10000
Cc1ccccc1NC(=O)Nc1ccc(CC(=O)N[C@@H](CCC(=O)O)C(=O)N[C@@H](CC(=O)O)C(=O)N[C@@H](Cc2c[nH]c3ccccc23)C(N)=O)cc1 [Compound 272]	< 50
Cc1ccccc1NC(=O)Nc1ccc(CC(=O)N[C@H](C(=O)N[C@@H](CC(=O)O)C(=O)N[C@H](C(N)=O)[C@@H](C)O)[C@@H](C)O)cc1 [Compound 257]	< 50
CCC(C)C(NC(=O)C(CC(=O)O)NC(=O)C(NC(=O)C1CCCN1)C(C)C)C(=O)NCc1ccc(NC(=O)Nc2ccccc2C)cc1 (stereo not shown) [Compound 343] (H-PVDI-X2; configuration not given here)	> 10000
Cc1ccccc1NC(=O)Nc1ccc(CC(=O)N[C@@H](CC(C)C)C(=O)N[C@@H](CC(=O)O)C(=O)N[C@@H](CC(C)C)C(N)=O)cc1 [Compound 231]	< 50
Cc1ccccc1NC(=O)Nc1ccc(CC(=O)N[C@H](C(=O)N[C@@H](CC(=O)O)C(=O)N[C@H](CCC(=O)O)C(N)=O)[C@@H](C)O)cc1 [Compound 260]	< 50
CSCC[C@H](NC(=O)Cc1ccc(NC(=O)Nc2ccccc2C)cc1)C(=O)N[C@@H](CC(=O)O)C(=O)N[C@H](C(N)=O)C(C)C [Compound 221]	< 50
COc1cc(CC(=O)NC(CCSC)C(=O)NC(CC(=O)O)C(=O)NC(C(=O)N2CCCC2C(=O)O)C(C)C)ccc1NC(=O)Nc1ccccc1 (stereo not shown) [Compound 2] ({NHPh-CO}-[X5]MDVP-OH; configuration not given here)	< 50
CSCC[C@H](NC(=O)[C@H](CC(=O)O)NC(=O)[C@H](CO)NC(=O)Cc1ccc(NC(=O)Nc2ccccc2C)cc1)C(N)=O [Compound 281]	< 50
CC(C)C[C@H](NC(=O)c1cccnc1Sc1ccccc1)C(=O)N[C@@H](CC(=O)O)C(=O)N[C@H](C(=O)O)C(C)C [Compound 373]	> 10000
COc1cccc(CC(=O)N[C@@H](CC(C)C)C(=O)N[C@@H](CC(=O)O)C(=O)N[C@H](C(=O)O)C(C)C)c1 [Compound 367]	> 10000
CC(C)C[C@H](NC(=O)[C@H](Cc1ccccc1)NC(=O)c1ccccc1)C(=O)N[C@@H](CC(=O)O)C(=O)N[C@H](C(=O)O)C(C)C [Compound 153] (Bz-FLDV-OH)	> 10000
Cc1ccccc1NC(=O)Nc1ccc(CC(=O)N[C@@H](CC(C)C)C(=O)N[C@@H](CCC(=O)O)C(=O)N[C@@H](CC(=O)O)C(N)=O)cc1 [Compound 310]	< 50

SMILES	IC50 [nM]
CSCC[C@H](NC(=O)[C@H](CC(=O)O)NC(=O)[C@H](CCC(N)=O)NC(=O)Cc1ccc(NC(=O)Nc2ccccc2C)cc1)C(N)=O [Compound 303]	< 50
Cc1ccccc1NC(=O)Nc1ccc(CC(=O)N[C@H](CC(C)C)C(=O)N[C@@H](CC(=O)O)C(=O)N[C@H](CC(N)=O)C(N)=O)cc1 [Compound 293]	< 50
CSCC[C@H](NC(=O)Cc1ccc(NC(=O)Nc2ccccc2C)cc1)C(=O)N[C@@H](CC(=O)O)C(=O)N[C@H](CC(N)=O)C(N)=O [Compound 226]	< 50
CSCC[C@H](NC(=O)Cc1ccc(NC(=O)Nc2ccccc2C)cc1)C(=O)N[C@@H](CC(=O)O)C(=O)N[C@@H](CC(=O)O)C(N)=O [Compound 219]	< 50
Cc1ccccc1NC(=O)Nc1ccc(CC(=O)N2CCC[C@H]2C(=O)N[C@@H](CCC(=O)O)C(=O)N[C@@H](CC(=O)O)C(N)=O)cc1 [Compound 312]	< 50
Cc1ccccc1NC(=O)Nc1ccc(CC(=O)N[C@@H](CO)C(=O)N[C@@H](CC(=O)O)C(=O)N[C@@H](CCC(=O)O)C(N)=O)cc1 [Compound 279]	< 50
Cc1ccccc1NC(=O)Nc1ccc(CC(=O)N[C@H](CC(C)C)C(=O)N[C@@H](CC(=O)O)C(=O)N[C@H](C(N)=O)[C@@H](C)O)cc1 [Compound 291]	< 50
Cc1ccccc1NC(=O)Nc1ccc(CC(=O)NC(CC(C)C)C(=O)NC(CC(=O)O)C(=O)NC(C(=O)O)c2ccccc2)cc1 (stereo not shown) [Compound 207]	50 to 10000
Cc1ccccc1NC(=O)Nc1ccc(CC(=O)N[C@@H](CC(C)C)C(=O)N[C@@H](CC(=O)O)C(=O)N[C@H](CO)C(N)=O)cc1 [Compound 240]	< 50
Cc1ccccc1NC(=O)Nc1ccc(CC(=O)NC(CC(C)C)C(=O)N2CN(Cc3ccc4c(c3)OCO4)C(=O)C[C@H]2C(=O)O)cc1 (mixture of isomers) [Compound 363]	> 10000
Cc1cccc(NC(=O)Nc2ccc(CC(=O)N[C@@H](CC(C)C)C(=O)N[C@@H](CC(=O)O)C(=O)N[C@H](C(=O)N3CCC[C@H]3C(=O)O)C(C)C)cc2)n1 [Compound 346] ({X3-CO}-[X1]LDVP-OH)	< 50
CC(C)C(NC(=O)C(CC(=O)O)NC(=O)C(NC(=O)C1Cc2ccccc2CN1)C1CCCCC1)C(=O)O (stereo not shown) [Compound 84] (H-[Tic][Chg]DV-OH; configuration not given here)	> 10000
CC(C)CC(NC(=O)CCc1ccccc1)C(=O)NC(CC(=O)O)C(=O)NCC1CCCCC1 (stereo not shown) [Compound 24]	> 10000
CCCCCCNC(=O)C(NC(=O)C(CC(=O)O)NC(=O)C(CC(C)C)NC(=O)C1CCc2ccccc2N1)C(C)C (stereo not shown) [Compound 114]	> 10000
CCCC(NC(=O)C(CC(=O)O)NC(=O)C(CC(C)C)NC(=O)c1ccc2ccccc2n1)C(=O)NC (stereo not shown) [Compound 52]	> 10000
Cc1ccccc1NC(=O)Nc1ccc(CC(=O)N[C@@H](CCCCNC(=O)CCCCCN)C(=O)N[C@@H](CC(=O)O)C(=O)N[C@H](C(=O)N2CCC[C@H]2C(=O)O)C(C)C)cc1 [Compound 202] ({NH(2-Me-phenyl)-CO}-[X1]K(Ahx)DVP-OH)	50 to 10000
CC[C@H](C)[C@H](NC(=O)CCc1ccc(O)cc1)C(=O)N[C@H](CC(=O)O)C(=O)NCC(C)C [Compound 16]	> 10000
Cc1ccccc1NC(=O)Nc1ccc(CC(=O)N[C@H](C(=O)N[C@@H](CC(=O)O)C(=O)N[C@@H](CC(C)C)C(N)=O)[C@@H](C)O)cc1 [Compound 253]	< 50
CSCC[C@H](NC(=O)[C@H](CC(=O)O)NC(=O)[C@H](CCC(=O)O)NC(=O)Cc1ccc(NC(=O)Nc2ccccc2C)cc1)C(N)=O [Compound 269]	< 50
Cc1ccccc1NC(=O)Nc1ccc(CC(=O)N2CCC[C@H]2C(=O)N[C@@H](CC(=O)O)C(=O)N[C@@H](CC(=O)O)C(N)=O)cc1 [Compound 241]	< 50
CCC(C)C(NC(=O)C(CC(=O)O)NC(=O)C(CC(C)C)NC(=O)Cc1ccccc1)C(=O)OC (stereo not drawn) [Compound 54] (PhAc-Leu-Asp-Ile-OMe; configuration not given here)	> 10000
CC(=O)N[C@@H](Cc1ccccc1)C(=O)N[C@@H](CC(C)C)C(=O)N[C@@H](CC(=O)O)C(=O)N[C@H](C(=O)O)C(C)C [Compound 152] (Ac-FLDV-OH)	> 10000
COC(=O)C(CCSC)NC(=O)C(NC(=O)C(CC(=O)O)NC(=O)C(CC(C)C)NC(=O)OC(C)(C)C)C(C)C (stereo not shown) [Compound 167] (Boc-LDVM-OMe; configuration not given here)	> 10000
COC(=O)[C@@H](CC(C)C)NC(=O)[C@H](CC(=O)O)NC(=O)[C@@H]1CCCN1C(=O)Cc1ccc(NC(=O)Nc2ccccc2C)cc1 [Compound 410]	50 to 10000
Cc1ccccc1NC(=O)Nc1ccc(CC(=O)N2CCC[C@H]2C(=O)N[C@@H](CC(=O)O)C(=O)N[C@H](C(N)=O)[C@@H](C)O)cc1 [Compound 246]	< 50
Cc1ccccc1NC(=O)Nc1ccc(CC(=O)N[C@@H](CO)C(=O)N[C@@H](CC(=O)O)C(=O)N[C@@H](CC(=O)O)C(N)=O)cc1 [Compound 275]	< 50
